Structures are written as SMILES.

The assay has as its target T1, α4β7 integrin (Homo sapiens, UniProt P13612+P26010).
T1 construct: a cell line RPMI-8866, which is known to express α4β7 integrin; endogenous in cells; host or cells: RPMI-8866 (human B cell line)
T1 sequence (P13612 34-1032): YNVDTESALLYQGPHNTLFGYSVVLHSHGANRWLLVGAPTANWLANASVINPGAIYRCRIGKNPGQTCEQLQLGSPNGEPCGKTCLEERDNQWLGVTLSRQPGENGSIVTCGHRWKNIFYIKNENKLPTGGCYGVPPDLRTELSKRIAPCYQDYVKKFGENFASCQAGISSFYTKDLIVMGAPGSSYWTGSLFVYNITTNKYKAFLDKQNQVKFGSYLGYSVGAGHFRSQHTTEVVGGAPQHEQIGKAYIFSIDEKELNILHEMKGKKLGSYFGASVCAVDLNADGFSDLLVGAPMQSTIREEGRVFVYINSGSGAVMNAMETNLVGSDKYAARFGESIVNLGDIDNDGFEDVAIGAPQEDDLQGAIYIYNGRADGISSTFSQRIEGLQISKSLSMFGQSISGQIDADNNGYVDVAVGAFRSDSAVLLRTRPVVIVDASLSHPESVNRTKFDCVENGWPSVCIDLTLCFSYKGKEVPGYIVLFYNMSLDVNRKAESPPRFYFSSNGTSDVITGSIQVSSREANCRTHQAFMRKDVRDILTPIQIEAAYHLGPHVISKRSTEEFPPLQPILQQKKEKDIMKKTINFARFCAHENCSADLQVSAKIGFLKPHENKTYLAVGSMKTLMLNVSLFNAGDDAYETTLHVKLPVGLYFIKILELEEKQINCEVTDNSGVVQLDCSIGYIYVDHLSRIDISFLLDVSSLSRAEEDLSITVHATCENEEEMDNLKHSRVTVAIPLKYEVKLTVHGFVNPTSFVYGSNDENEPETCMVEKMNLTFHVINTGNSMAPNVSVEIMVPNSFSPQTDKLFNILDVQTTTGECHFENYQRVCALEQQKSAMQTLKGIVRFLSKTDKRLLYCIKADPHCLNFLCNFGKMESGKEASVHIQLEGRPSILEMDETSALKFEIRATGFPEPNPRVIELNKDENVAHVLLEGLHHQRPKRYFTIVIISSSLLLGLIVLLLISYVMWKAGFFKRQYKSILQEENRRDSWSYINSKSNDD
T1 sequence (P26010 20-798): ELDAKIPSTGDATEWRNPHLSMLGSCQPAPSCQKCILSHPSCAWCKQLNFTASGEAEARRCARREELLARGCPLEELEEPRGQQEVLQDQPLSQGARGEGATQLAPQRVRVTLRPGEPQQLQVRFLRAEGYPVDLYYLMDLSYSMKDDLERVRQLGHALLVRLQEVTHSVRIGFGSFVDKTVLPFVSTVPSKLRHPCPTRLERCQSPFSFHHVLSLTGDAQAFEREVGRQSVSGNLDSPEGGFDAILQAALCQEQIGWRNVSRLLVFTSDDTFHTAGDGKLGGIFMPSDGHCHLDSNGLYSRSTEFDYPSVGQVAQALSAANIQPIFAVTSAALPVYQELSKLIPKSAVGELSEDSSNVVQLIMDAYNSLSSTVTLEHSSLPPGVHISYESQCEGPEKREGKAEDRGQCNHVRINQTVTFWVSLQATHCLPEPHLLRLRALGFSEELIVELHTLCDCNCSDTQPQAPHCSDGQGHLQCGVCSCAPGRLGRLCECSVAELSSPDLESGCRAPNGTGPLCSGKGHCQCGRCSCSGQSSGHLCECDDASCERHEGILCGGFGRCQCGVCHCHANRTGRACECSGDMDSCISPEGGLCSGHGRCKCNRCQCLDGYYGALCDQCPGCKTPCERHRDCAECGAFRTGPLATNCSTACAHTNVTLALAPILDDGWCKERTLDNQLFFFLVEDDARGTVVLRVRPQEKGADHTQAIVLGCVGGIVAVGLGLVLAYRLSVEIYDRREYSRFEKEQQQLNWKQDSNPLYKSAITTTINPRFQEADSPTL
Kind of assay: MAdCAM-1/α4β7 integrin binding inhibitory activity evaluation test (RPMI-8866 cells binding to MAdCAM-1/Fc). Type of assay: cell-based. Particulars: recombinant mouse MAdCAM-1/Fc, no serum. As to the method:
(2) MAdCAM-1/α4β7 Integrin Binding Inhibitory Activity Evaluation Test
Each test substance was measured in terms of an ability to inhibit the MAdCAM-1 binding of a human B cell line, namely, a cell line RPMI-8866, which is known to express α4β7 integrin.
A solution of recombinant mouse MAdCAM-1/Fc (R&D Systems, Inc.) (0.75 μg/mL) diluted with a buffer A (carbonate buffer, pH 9.6) was added in an amount of 50 μL/well to a 96-well microtiter plate, followed by incubation at 4° C. overnight. After the plate was washed with PBS once, 150 μL/well of Block Ace (Snow Brand Milk Products Co., Ltd.) was added, followed by incubation at room temperature for 2 hours. After removal, the plate was washed with PBS once.
Then, 100 μL of the RPMI-8866 cells (2×10^6 cells/mL) and 100 μL of the test substance at each of various concentrations diluted with a binding buffer (DMEM containing 40 mM HEPES, 0.2% BSA, and 4 mM MnCl2) were added on the plate coated with the MAdCAM-1/Fc (5×10^5 cells/well), followed by incubation at 30° C. for 15 to 60 minutes. After the cells were bound to the wells, the plate was washed with PBS to remove unbound cells. A buffer C (PBS containing 1.5% Triton X-100) in an amount 50 μL/well was added to the plate to lyse the bound RPMI-8866 cells. After 30 μL of a substrate buffer (Promega, CytoTox 96 Non-Radioactive Cytotoxicity Assay) was added to 30 μL of the cell lysate, a reaction was allowed to proceed at room temperature in the dark for 30 minutes. After 30 μL of a stop solution (Promega, CytoTox 96 Non-Radioactive Cytotoxicity Assay) was added to each, and then an absorbance at 490 nm was measured using a plate reader. The absorbance obtained here represents a detection result of an activity of lactate dehydrogenase (LDH) eluted in the supernatant of each well, that is, the absorbance is proportional to the number of RPMI-8866 cells bound to the MAdCAM-1 and thus remaining on the plate. The test was performed in duplicate. Provided that the absorbance of the well containing no test substance was 100%, a cell binding rate with the test substance at each of the various concentrations was figured out, and a concentration IC50 which brought about 50% binding inhibition was calculated.
Usually IC50 stands for the concentration that gives 50% inhibition. For the compound `Cc1c(C)n(C)c(=O)n(-c2ccc(C[C@H](NC(=O)c3cc(F)c(NS(=O)(=O)c4ccc(NC(=O)C5CCOCC5)cc4)cc3F)C(=O)O)cc2)c1=O` [Compound A15], the concentration for half-maximal inhibition (IC50) worked out at 0.93 nM.
The value for `Cc1cn(C)c(=O)n(-c2ccc(C[C@H](NC(=O)c3cc(F)c(NS(=O)(=O)c4ccc(NC(=O)C(C)C)cc4)cc3F)C(=O)O)cn2)c1=O` [Compound A71] was 3.2 nM.
The value for `Cc1cn(C)c(=O)n(-c2ccc(C[C@H](NC(=O)c3cc(F)c(NS(=O)(=O)c4ccc(NC(=O)C#CC(C)(C)C)cc4)cc3F)C(=O)O)cn2)c1=O` [Compound A68] was 5 nM; that for `Cn1c(=O)n(-c2ccc(C[C@H](NC(=O)c3cc(F)c(NS(=O)(=O)c4ccc(NC(=O)C(C)(C)C)cc4)cc3F)C(=O)O)cc2)c(=O)c2ccncc21` [Compound A1, (2S)-2-[[4-[[4-(2,2-dimethylpropanoylamino)phenyl]sulfonylamino]-2,5-difluoro-benzoyl]amino]-3-[4-(1-methyl-2,4-dioxo-pyrido[3,4-d]pyrimidin-3-yl)phenyl]propanoic acid] was 0.26 nM.
For `Cc1c(C)n(C)c(=O)n(-c2ccc(C[C@H](NC(=O)c3cc(F)c(NS(=O)(=O)c4cccc(NC(=O)C(C)(C)C)c4)cc3F)C(=O)O)cc2)c1=O` [Compound A49], the IC50 stood at 2.9 nM.
On to `Cn1c(=O)n(-c2ccc(C[C@H](NC(=O)c3cc(F)c(NS(=O)(=O)c4ccc(NC(=O)C5(c6ccccc6)CC5)cc4)cc3F)C(=O)O)cn2)c(=O)c2ccncc21` [Compound A29], for which the half-maximal inhibitory concentration (IC50) was 0.95 nM.
Turning to `CCC(CC)C(=O)Nc1ccc(S(=O)(=O)Nc2cc(F)c(C(=O)N[C@@H](Cc3ccc(-n4c(=O)c(C)c(C)n(C)c4=O)cc3)C(=O)O)cc2F)cc1` [Compound A4], the IC50 was 0.85 nM.
For `CN1CCc2c(n(C)c(=O)n(-c3ccc(C[C@H](NC(=O)c4cc(F)c(NS(=O)(=O)c5ccc(NC(=O)C(C)(C)C)cc5)cc4F)C(=O)O)cc3)c2=O)C1` [Compound A41], the IC50 turned out to be 0.29 nM.
The value for `Cc1cn(C)c(=O)n(-c2ccc(C[C@H](NC(=O)c3cc(F)c(NS(=O)(=O)c4ccc(NC(=O)C5(C#N)CC5)cc4)cc3F)C(=O)O)cn2)c1=O` [Compound A60] was 2.3 nM.
As to `COC1(C(=O)Nc2ccc(S(=O)(=O)Nc3cc(F)c(C(=O)N[C@@H](Cc4ccc(-n5c(=O)c(C)c(C)n(C)c5=O)cc4)C(=O)O)cc3F)cc2)CC1` [Compound A17], the IC50 was determined as 0.55 nM.
The value for `Cc1cn(C)c(=O)n(-c2ccc(C[C@H](NC(=O)c3cc(F)c(NS(=O)(=O)c4ccc(NC(=O)C(C)(C)C)cc4)cc3F)C(=O)O)cc2)c1=O` [Compound A37] was 1.1 nM; that for `Cn1c2c(c(=O)n(-c3ccc(C[C@H](NC(=O)c4cc(F)c(NS(=O)(=O)c5ccc(NC(=O)C(C)(C)C)cc5)cc4F)C(=O)O)nc3)c1=O)CCCC2` [Compound A47] was 0.74 nM.
For `Cc1c(C)n(C(C)C)c(=O)n(-c2ccc(C[C@H](NC(=O)c3cc(F)c(NS(=O)(=O)c4ccc(NC(=O)C(C)(C)C)cc4)cc3F)C(=O)O)cc2)c1=O` [Compound A48], the 50% inhibitory concentration (IC50) was 2 nM.
The value for `Cn1c2c(c(=O)n(-c3ccc(C[C@H](NC(=O)c4cc(F)c(NS(=O)(=O)c5ccc(NC(=O)C(C)(C)C)cc5)cc4F)C(=O)O)cn3)c1=O)COCC2` [Compound A44] was 0.48 nM; that for `CN1C(=O)N(c2ccc(S(=O)(=O)Nc3cc(F)c(C(=O)N[C@@H](Cc4ccc(-n5c(=O)c6ccncc6n(C)c5=O)nc4)C(=O)O)cc3F)cc2)C(=O)C1(C)C` [Compound A38] was 5.2 nM.
The value for `Cc1c(C)n(C)c(=O)n(-c2ccc(C[C@H](NC(=O)c3cc(F)c(NS(=O)(=O)c4ccc(NC(=O)C(C)(C)C)cn4)cc3F)C(=O)O)cn2)c1=O` [Compound A32] was 0.62 nM.
The value for `Cn1c(=O)n(-c2ccc(C[C@H](NC(=O)c3cc(F)c(NS(=O)(=O)c4ccc(NC(=O)NC(C)(C)C)cc4)cc3F)C(=O)O)cc2)c(=O)c2ccncc21` [Compound A5] was 2.3 nM; that for `Cc1c(C)n(C)c(=O)n(-c2ccc(C[C@H](NC(=O)c3cc(F)c(NS(=O)(=O)c4cc(NC(=O)C(C)(C)C)cs4)cc3F)C(=O)O)cc2)c1=O` [Compound A11] was 2 nM; that for `Cn1ccc(=O)n(-c2ccc(C[C@H](NC(=O)c3cc(F)c(NS(=O)(=O)c4ccc(NC(=O)C(C)(C)C(F)(F)F)cc4)cc3F)C(=O)O)cn2)c1=O` [Compound A57] was 2 nM.
As to `CC(=O)Nc1ccc(S(=O)(=O)Nc2cc(F)c(C(=O)N[C@@H](Cc3ccc(-n4c(=O)c5ccncc5n(C)c4=O)cc3)C(=O)O)cc2F)cc1` [Compound A2], the half-inhibitory concentration (IC50) stood at 1.2 nM.
The value for `Cn1c2c(c(=O)n(-c3ccc(C[C@H](NC(=O)c4cc(F)c(NS(=O)(=O)c5ccc(NC(=O)C(C)(C)C)cc5)cc4F)C(=O)O)cc3)c1=O)CCOC2` [Compound A27] was 0.36 nM; that for `COc1cc2c(=O)n(-c3ccc(C[C@H](NC(=O)c4cc(F)c(NS(=O)(=O)c5ccc(NC(=O)C(C)(C)C)cc5)cc4F)C(=O)O)cc3)c(=O)n(C)c2cn1` [Compound A36] was 0.94 nM.
For the compound `CN1CCC(=O)N(c2ccc(C[C@H](NC(=O)c3cc(F)c(NS(=O)(=O)c4ccc(NC(=O)C(C)(C)C)cc4)cc3F)C(=O)O)cn2)C1=O` [Compound A75, (2S)-2-[2,5-difluoro-4-[(4-pivalamidophenyl)sulfonamide]benzamido]-3-[6-(3-methyl-2,6-dioxotetrahydropyrimidin-1(2H)-yl)pyridin-3-yl]propanoic acid], the 50% inhibitory concentration (IC50) was determined as 4 nM.
For the compound `Cn1c2c(c(=O)n(-c3ccc(C[C@H](NC(=O)c4cc(F)c(NS(=O)(=O)c5ccc(NC(=O)C(C)(C)C)cc5)cc4F)C(=O)O)cn3)c1=O)CCOC2` [Compound A40], the IC50 was found to be 0.74 nM.
The value for `Cc1c(C)n(C)c(=O)n(-c2ccc(C[C@H](NC(=O)c3cc(F)c(NS(=O)(=O)c4ccc(NC(=O)C(C)(C)C)cc4)cc3F)C(=O)O)cn2)c1=O` [Compound A28] was 0.56 nM.

These data come from patent US10562898B2, “Substituted benzenesulfonamides as inhibitors of alpha-4 beta-7 integrin activity” (EA PHARMA CO., LTD., priority 2016, dated 2020).
